Experiments:
[1] = Plasma pharmacokinetics of veliparib and topotecan; assay type: in vivo, human; settings: for AUC(0-t) / half-life: human, plasma; for AUC(0-t): oral
[2] = tested on: patients; settings: cited from earlier work
[3] = tested on: poly(ADP-ribose) (PAR) levels in peripheral blood mononuclear cells; test: PAR levels in PBMCs by sandwich ELISA; assay type: in vivo, human; settings: topotecan alone, Day 30 (Cycle 2 Day 2); of 20 quantifiable pairs
[4] = tested on: recurrent, platinum-resistant ovarian cancer; settings: cited from earlier work
[5] = daily 1-hour infusion for 5 consecutive days, recurrent platinum-resistant ovarian cancer

C[C@]1(c2nc3c(C(N)=O)cccc3[nH]2)CCCN1 [veliparib]
AUC(0-t) ([1]; 10 mg): 351 ± 69 ng·h/mL
AUC(0-t) ([1]; 300 mg): 15000 ± 3090 ng·h/mL
half-life ([1]; po): 6.1 ± 2.8 h
single agent MTD ([2]; veliparib bid): 400 mg

O=C(c1cc(Cc2n[nH]c(=O)c3ccccc23)ccc1F)N1CCN(C(=O)C2CC2)CC1 [olaparib]
RP2D of the combination, olaparib dose ([2]; per dose, twice daily days 1–5, with irinotecan every two weeks): 50 mg

CC[C@@]1(O)C(=O)OCc2c1cc1n(c2=O)Cc2cc3c(CN(C)C)c(O)ccc3nc2-1 [topotecan]
half-life ([1]; iv): 2.7 ± 0.6 h
plasma clearance, mean (± SD) ([1]; topotecan administered alone on Cycle 2, iv): 10.1 ± 3.8 L/hr/m^2
sample pairs with decreased PAR levels [3]: 7
sample pairs with increased PAR levels [3]: 11
sample pairs with unchanged PAR levels [3]: 2
median overall survival [4, 5]: 57 weeks
overall response rate [4, 5]: 17%
women with myelosuppression ([4]; daily x 5 topotecan): up to 75%
response rate ([4]; phase II, days 1, 8, 15 of a 28-day cycle, platinum refractory/resistant ovarian cancer): 18%
grade 4 toxicities ([4]; phase II, days 1, 8, 15 of a 28-day cycle, myelosuppression mild): no grade 4 toxicities observed
single-agent MTD ([2]; weekly topotecan (days 2, 9 and 16)): 4 mg/m^2

Reference: paper PMC7580251 (Clinical cancer research : an official journal of the …, 2017)
